Data as given in PubChem BioAssay (NCI).
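Values below derive from 48-hour exposures of cells grown in 96-well plates, with endpoints linearly interpolated between the two concentrations bracketing the appropriate inhibition level. GI50 is the concentration that inhibits growth by half. TGI marks complete inhibition of growth.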

What was measured:
Assay in all cases: DTP human tumour cell line panel, 48 h
BT-549 breast = tested on: BT-549 breast
HCT-116 colon = tested on: HCT-116 colon
HOP-62 NSCLC = tested on: HOP-62 NSCLC
HOP-92 NSCLC = tested on: HOP-92 NSCLC
IGROV1 ovarian = tested on: IGROV1 ovarian
M14 melanoma = tested on: M14 melanoma
NCI-H23 lung = tested on: NCI-H23 lung
OVCAR-5 ovarian = tested on: OVCAR-5 ovarian
SK-MEL-5 melanoma = tested on: SK-MEL-5 melanoma
UACC-62 melanoma = tested on: UACC-62 melanoma

SMILES | GI50 (BT-549 breast) | TGI (BT-549 breast) | GI50 (HCT-116 colon) | TGI (HCT-116 colon) | GI50 (HOP-62 NSCLC) | TGI (HOP-62 NSCLC) | GI50 (HOP-92 NSCLC) | TGI (HOP-92 NSCLC) | GI50 (IGROV1 ovarian) | TGI (IGROV1 ovarian) | GI50 (M14 melanoma) | TGI (M14 melanoma) | GI50 (NCI-H23 lung) | TGI (NCI-H23 lung) | GI50 (OVCAR-5 ovarian) | TGI (OVCAR-5 ovarian) | GI50 (SK-MEL-5 melanoma) | TGI (SK-MEL-5 melanoma) | GI50 (UACC-62 melanoma) | TGI (UACC-62 melanoma)
CN(C)CCCOc1ccc(-c2ccc3ncc4c(c3c2)n(C2CCOCC2)c(=O)n4C)cn1 | 1.32 µM | 8.99 µM | 3.12 µM | 16.6 µM | 1.87 µM | 12.5 µM | 0.218 µM | 1.61 µM | 0.454 µM | 5.6 µM | 1.78 µM | 13.8 µM | 2.53 µM | 22.1 µM | 1.49 µM | 30.4 µM | 1.48 µM | 7.47 µM | 2.73 µM | 13.8 µM
COc1ccc(-c2cc(=O)c3ccc(C)nc3[nH]2)cc1 |  | > 100 µM | > 100 µM | > 100 µM |  | > 100 µM |  | > 100 µM |  | > 100 µM |  | > 100 µM |  | > 100 µM |  | > 100 µM | 48 µM | > 100 µM |  | > 100 µM
COC(=O)c1c2c(c[n+]([O-])c1C)C(=O)C=CC2=O | 1.78 µM | 3.23 µM | 2.19 µM | 5.18 µM | 2.6 µM | 7.71 µM | 2.84 µM | 9.06 µM | 2.11 µM | 4.54 µM | 1.87 µM | 3.69 µM | 1.88 µM | 4.26 µM | 1.9 µM | 3.85 µM | 1.74 µM | 3.15 µM | 1.81 µM | 3.4 µM
COc1cc(/C=C2\C(=O)Nc3cc(C)c(O)cc32)cc(OC)c1OC | 1.86 µM | 6.26 µM | 4.07 µM | 15.8 µM | 11.7 µM | 37.4 µM | 5.61 µM | > 100 µM | 5.35 µM | 21.3 µM | 4.45 µM | 17.3 µM | 3.61 µM | 23.7 µM | 13.5 µM | 30.4 µM | 2.52 µM | 9.17 µM | 3.82 µM | 16.8 µM
Cc1nn(-c2nc3ccccc3[nH]2)c(N)c1-c1ccc(Cl)cc1 | 12.9 µM | > 100 µM | 4.37 µM | > 100 µM | 7.29 µM | > 100 µM | 3.28 µM | 75.4 µM | 7.75 µM | > 100 µM | 6.68 µM | > 100 µM | 5.23 µM | > 100 µM | 46.7 µM | > 100 µM | 4.08 µM | > 100 µM | 5.9 µM | > 100 µM
CC(C)(C)C(=O)c1c(C(F)(F)F)n([O-])c2ccccc2[n+]1=O | 0.428 µM | 1.59 µM | 0.619 µM | 1.59 µM | 1.47 µM | 2.94 µM | 0.573 µM | 1.93 µM | 0.0505 µM | 0.172 µM | 1.45 µM | 4.85 µM | 1.17 µM | 2.39 µM | 0.998 µM | 2.15 µM | 0.24 µM | 0.83 µM | 1.33 µM | 2.66 µM
COc1ccc(S(=O)(=O)N2CC(C)(C)CN(S(=O)(=O)c3ccc(OC)cc3)C2C(=O)NO)cc1 | > 20 µM | > 20 µM | > 20 µM | > 20 µM | > 20 µM | > 20 µM | 8.14 µM | > 20 µM | > 20 µM | > 20 µM | > 20 µM | > 20 µM | > 20 µM | > 20 µM | > 20 µM | > 20 µM |  | > 7.63 µM | > 19.2 µM | > 20 µM
CCCC(=O)NC1=C(Cl)C(=O)c2ccccc2C1=O |  | 16.7 µM |  | 4.52 µM |  | 25.7 µM |  | 3.22 µM |  | 17.9 µM |  | 13 µM |  | 10.3 µM |  | 15.4 µM |  | 6.85 µM |  | 10.3 µM
O=C(CC(c1ccccc1)c1c(O)c2ccccc2oc1=O)c1ccccc1 (stereo unspecified) |  | > 100 µM |  | > 100 µM |  | > 100 µM |  | > 86.5 µM |  | > 100 µM |  | > 100 µM |  | > 100 µM |  | > 100 µM |  | > 100 µM |  | > 100 µM
COc1cc(-c2cc3ncccc3c3nc(N)c4cccnc4c23)cc(OC)c1OC | 0.285 µM | 1.88 µM |  |  | 0.599 µM | 87.1 µM | 9.17 µM | > 100 µM | 1.56 µM | > 100 µM | 0.284 µM | 3.02 µM | 1.28 µM | 51.2 µM | 4.98 µM | > 100 µM | 0.296 µM | 1.99 µM | 0.358 µM | 19.4 µM
C=C(c1ccc2nc(NC(=O)OC)[nH]c2c1)c1cccs1 |  | > 100 µM |  | > 45.2 µM |  | > 77.4 µM |  | > 31 µM |  | > 100 µM |  | > 100 µM |  |  |  | > 100 µM |  | > 20.7 µM |  | > 100 µM
C=C1C(O)C2C(=C(CCc3ccccc3)C13CC3)C(=O)C(C)(CO)C2O (stereo unspecified) | > 100 µM | > 100 µM |  |  | > 100 µM | > 100 µM | 12.5 µM | > 100 µM | > 100 µM | > 100 µM | > 100 µM | > 100 µM | > 100 µM | > 100 µM | > 100 µM | > 100 µM | > 100 µM | > 100 µM | > 100 µM | > 100 µM
